Test results taken from publication PMC9969401, “Discovery of 2-(3-Benzamidopropanamido)thiazole-5-carboxylate Inhibitors of the Kinesin HSET (KIFC1) and the Development of Cellular Target Engagement Probes” (Journal of Medicinal Chemistry, 2023).

Columns and labels:
[1] = test system: centrosome-amplified (4NCA) DLD1 cells; test: Multipolar spindle assay (4NCA cell line); type: cell-based, human
Text: (§1) The cellular models consisted of chromosomally stable human colon cancer DLD1 diploid (2N) and tetraploid (4N) cells, along with tetraploid centrosome -amplified (4NCA) DLD1 cells and DLD1 HSET knockout (KO) cells. DLD1 2N and 4N cells were generated and characterized as previously described.[27],[41],[42] In order to generate 4NCA cells, we used dihydro-cytochalasin B (DCB) to transiently block cytokinesis and induce tetraploidisation and centrosome amplification in DLD1 cells. Centrosome amplification in 4NCA cells is transient and therefore they were generated from 2N cells for each run of the assay.[27] The DLD1 HSET KO cells were knockout clones generated by CRISPR and validated by sequencing to have a homozygous deletion in the KIFC1 gene.
(§2) Inhibition of HSET-mediated clustering was measured using a phenotypic assay measuring the formation of multipolar metaphase spindles in DLD1 cells with (4NCA) or without (4N) centrosome amplification. 4NCA cells were generated by treating 2N DLD1 cells with 2 μΜ DCB for 24 h, washed, and released in growth media for 24 h. 4N and 4NCA DLD1 cells were plated in 96-well ibidi μ-Clear plates (IB-89626, ibidi) with a no. 1.5 polymer coverslip bottom with optimal imaging properties. To enrich the mitotic population, cells were first treated for 3.5 h with 8 μM pro-TAME (I-440-01M, R&D system), an inhibitor of APC/C that transiently arrests cells in metaphase without affecting the structure of the spindle. Following the initial arrest, cells were treated with HSET compounds in the presence of 8 μM MG-132 (S2619, SelleckChem), a proteasome inhibitor that helps to maintain the metaphase arrest, where the number of spindle poles/cell can be optimally quantified by an automated segmentation analysis.
(§3) Cells were then fixed in methanol and stained for 3 h for mitotic pole marker aurora A (1:1000 610939 mouse anti-IAK1, BD Biosciences) and phosphorylated histone H3 (1:1500 ab47297 anti-histone H3 pS10, Abcam) as a marker of mitotic cells in 1.5% FBS in PBS. Following primary antibody treatment, cells were incubated with secondary antibodies Alexa Fluor 488 goat antimouse and Alexa Fluor 555 goat antirabbit (1:1500, A11029 and A21429, respectively, Life Technologies) together with 1 μg/mL DAPI (D9542, Sigma) in 1.5% FBS in PBS. Image acquisition was performed at 10× using the GE INCELL 2200 High Content Imaging System (Cytiva) and analyzed using the InCell Investigator software. Mitotic cells were identified by high pHH3 staining and were scored as multipolar if they had more than two mitotic spindle poles. The percentage of multipolar mitoses was calculated by dividing the number of multipolar mitoses by the total of all visible mitoses in one well of a 96-well plate (n > 100 for each replicate, two replicates per concentration point).

[2] = test system: non-centrosome amplified DLD1 (4N) cells; test: Multipolar spindle assay (4N cell line); type: cell-based, human
Text: as §1, §2, §3

[3] = target: T1, GST-tagged Eg5 motor domain (Homo sapiens, UniProt P52732); test: ADP-Glo Eg5 assay (4.8 μM ATP); type: biochemical; conditions: preformed microtubules, 4.8 μM ATP (Table 4)
T1 construct: 4 nM GST-tagged Eg5 motor domain protein (Cytoskeleton, EG01); purchased Cytoskeleton EG01
T1 sequence (P52732 18-359 limits assumed): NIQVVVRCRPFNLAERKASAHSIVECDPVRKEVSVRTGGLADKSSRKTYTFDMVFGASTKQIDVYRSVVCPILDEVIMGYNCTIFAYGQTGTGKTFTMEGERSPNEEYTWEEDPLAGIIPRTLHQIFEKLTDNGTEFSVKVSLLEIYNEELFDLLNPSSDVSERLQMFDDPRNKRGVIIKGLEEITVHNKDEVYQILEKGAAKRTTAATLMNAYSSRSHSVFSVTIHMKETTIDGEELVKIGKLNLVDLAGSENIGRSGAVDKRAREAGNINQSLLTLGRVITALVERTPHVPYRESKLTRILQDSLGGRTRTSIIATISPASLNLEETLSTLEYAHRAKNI
Protocol: (§4) The HSET or Eg5 ATPase activity was measured using the ADP-Glo Kinase Assay kit (Promega, V9102). The assays were run using final concentrations of 5 nM full-length human N-terminal His-tag HSET or 4 nM GST-tagged Eg5 motor domain protein (Cytoskeleton, EG01) and an assay buffer containing 20 mM HEPES pH 6.8, 10 mM MgCl2, 0.25 mM EGTA, 0.4 mM Triton X-100, and 1 mM DTT. Preformed microtubules (Universal Biologicals Cambridge, bovine MT001-XL, or porcine MT002-XL), which were reconstituted in 15 mM PIPES pH 7, 1 mM MgCl2, and 20 μM paclitaxel, were present at a final assay concentration of 70 μg/mL. A reaction volume of 5 μL was used in Proxiplate 384 plus white assay plates (PerkinElmer, 6008280). To measure compound inhibition, 100 nL of compound dissolved in DMSO or DMSO alone was preincubated with the HSET and microtubules for 10 min before 3 μM Ultra-Pure ATP was added to start the ATPase reaction for the 3 μM ATP HSET assay. For the 500 μM ATP HSET assay, the addition of 500 μM Ultra-Pure ATP was used. For the Eg5 ATPase assay, 4.8 μM Ultra-Pure ATP was used. All reactions were incubated at 25 °C for 80 min and then stopped by the addition of 5 μL of the ADP-Glo reagent. 10 μL of Kinase Detection Reagent was then added after a further 45 min of incubation. The luminescence was read after 45 min on a PheraStar FSX plate reader (BMG Labtech). The data processing was performed using Dotmatics Studies software package. Percentage inhibition was determined based on normalization to high controls (0% inhibition, all reagents with 100 nL of DMSO alone) and low controls (100% inhibition […], without HSET). The IC50 values for each compound were determined using a four-parameter logistic curve fit of % inhibition versus concentration.

[4] = target: T2, recombinant full-length HSET (Homo sapiens, UniProt Q9BW19); test: ADP-Glo HSET assay (3 μM ATP), microtubule-stimulated ATPase; type: biochemical; conditions: for IC50: preformed microtubules, 3 μM ATP, read-out: HSET ADP-Glo IC50
T2 construct: 5 nM full-length human N-terminal His-tag HSET; His-tag (N)
T2 sequence (Q9BW19 1-673): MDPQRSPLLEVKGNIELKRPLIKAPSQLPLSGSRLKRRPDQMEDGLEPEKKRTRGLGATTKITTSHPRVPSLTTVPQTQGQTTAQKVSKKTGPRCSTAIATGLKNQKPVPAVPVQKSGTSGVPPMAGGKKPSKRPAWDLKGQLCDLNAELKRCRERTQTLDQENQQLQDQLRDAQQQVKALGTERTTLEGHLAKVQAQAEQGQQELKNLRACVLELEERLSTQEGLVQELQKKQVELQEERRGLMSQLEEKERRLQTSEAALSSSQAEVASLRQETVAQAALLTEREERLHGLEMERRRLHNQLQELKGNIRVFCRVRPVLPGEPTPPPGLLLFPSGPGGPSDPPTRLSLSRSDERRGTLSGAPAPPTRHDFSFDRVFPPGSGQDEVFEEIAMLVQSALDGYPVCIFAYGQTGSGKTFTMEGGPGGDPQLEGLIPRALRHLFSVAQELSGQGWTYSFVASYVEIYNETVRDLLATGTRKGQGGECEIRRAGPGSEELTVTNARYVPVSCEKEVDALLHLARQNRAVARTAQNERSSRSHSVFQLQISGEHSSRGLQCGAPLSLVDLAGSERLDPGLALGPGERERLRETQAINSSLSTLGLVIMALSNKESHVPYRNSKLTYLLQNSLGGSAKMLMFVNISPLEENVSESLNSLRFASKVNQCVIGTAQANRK
Protocol: as §4

[5] = target: T2, recombinant full-length HSET; test: ADP-Glo HSET assay (500 μM ATP); type: biochemical; conditions: high ATP concentration of 500 μM; single determination or mean of two
Protocol: as §4

[6] = target: T3, HSET in DLD1 4N cells (Homo sapiens, UniProt Q9BW19); test: Click probe localization target engagement imaging in DLD1 4N cells; type: cell-based; conditions: DLD1 4N cells treated with 40
T3 construct: overlapped with the signal from the antibody-probed endogenous HSET protein; endogenous in cells; host or cells: DLD1 4N cells
T3 sequence (Q9BW19 1-673): T2 sequence (Q9BW19 1-673)
Protocol: (§5) The Cy-5 tetrazine dye selected for this experiment is not cell-permeable, thus fixation and permeabilization of cells were necessary prior to its addition. Experiments were conducted in DLD1 4N cells and, as a negative control, isogenic 2N DLD1 HSET KO cells in which HSET expression was prevented by the disruption of the HSET gene using CRISPR. Cells were treated first with proTAME for 2 h to accumulate mitotic events, followed by treatment with the TCO probe 40 for 45 min. The live cells were then fixed and permeabilized before treatment with the tetrazine-Cy5 dye and incubation to allow the IEDDA reaction to occur. Additionally, the cells were stained for the endogenous HSET protein using indirect immunofluorescence and imaged to observe the fluorescence from both the TCO probe and antibody-labeled HSET. […] A 3 μM concentration of the probe 40 gave an acceptable signal-to-noise ratio of around 2:1. Even under these optimal conditions, some residual uniform cytoplasmic Cy5 signal was observed within the cells. However, a clear Cy5 decoration of the mitotic spindle was seen, which overlapped with the signal from the antibody-probed endogenous HSET protein (Figures 2A and S6). […] We observed a 14–17-fold increase in signal in DLD1 4N cells treated with 40 relative to tetrazine-Cy5 alone. […] Comparing the intensity of click probe labeling coincident with the mitotic spindle in DLD1 4N cells to that in DLD1 HSET KO cells after both were treated with 40, we observed a twofold higher signal in the former.
(§6) Direct target engagement of active inhibitor 36 was measured by calculating its capacity to displace the TCO-containing probe 40. 4N DLD1 cells and DLD1 HSET KO cells (negative control) were plated in 96-well ibidi μ-Clear plates (IB-89626, ibidi). Cells were first treated for 2 h with 8 μM pro-TAME (I-440–01M, R&D system) to accumulate mitotic cells and were then treated with 8 μM MG-132 (S2619, SelleckChem) and 3 μM 40, alone or together with active inhibitor 36 in DMEM media with 1% FBS for 45 min. Cells were then washed three times in DMEM, with the second wash being incubated for 10 min to ensure the optimal reduction of unspecific compound binding. After an additional PBS wash, cells were then fixed in 4% PFA/PBS (15670799, Thermo Scientific) prior to incubation with 400 nM tetraszine-Cy5 (CLK-015-05, Jena Biosciences) in 1.5% FBS/PBS for 10 min at room temperature. Cells were permeabilized by the addition of 0.5% TritonX-100/PBS for 5 min before being stained overnight for Pericentrin (1:1500 ab28144 mouse anti-PCNT, Abcam) and KIFC1 (1:1500 12313S rabbit anti-KIFC1, Cell Signaling Technologies). Secondary antibodies Alexa Fluor 488 donkey antirabbit and Alexa Fluor 555 donkey antimouse (1:1500, A21206 and A31570, respectively, Life Technologies) were added together with 1 μg/mL DAPI (D9542, Sigma) in 1.5% FBS in PBS.
(§7) Plates were imaged at 40× using a Zeiss LSM980 confocal microscope with Airyscan 2. The subsequent analysis and quantification were performed using 3D image segmentation with the Arivis4D software. Mitotic cells were segmented by selecting for the highest density (integrated DAPI intensity/total volume), and the mitotic pole areas were segmented using the Pericentrin signal. The signal of the click probe (Cy5) and total KIFC1 (FITC) was measured on the mitotic pole area, and both were normalized to the control condition containing 40 probe alone. The ratio of probe per target (click probe pole integrated intensity signal/KIFC1 pole integrated intensity signal) was used to calculate the occupancy of the probe in the target protein and normalized to the control condition containing 40 probe alone (n > 100 for each replicate, two replicates per concentration point).

[7] = test system: DLD1 HSET KO cells; test: Click probe localization imaging in DLD1 HSET KO cells (negative control); type: cell-based, human; conditions: HSET nonexpressing (DLD1 HSET KO) cells
Protocol: as §5, §6, §7

[8] = Kinetic aqueous solubility (KSol), HPLC-UV; type: physicochemical; conditions: PBS buffer pH 7.4, 100 μM solution with 1% DMSO, HPLC with UV detection

IC50 [3] [nM] | ligand efficiency (LE) [4] | lipophilic ligand efficiency (LLE) [4] | LE ([4]; LE = −1.4Log(IC50 [M])/number of non-hydrogen atoms (Table 1)) | LLE ([4]; LLE = −Log(IC50 [M]) – cLogP (MoKa) (Table 1)) | IC50 ([4]; mean (±SD) n ≥ 3 (Table 4)) [nM] | IC50 ([4]; mean (±SD) n ≥ 3, >200 from a single determination (Table 1)) [nM] | IC50 [5] [nM] | fold increase in signal relative to tetrazine-Cy5 alone [6] | IC50 ([4]; mean (±SD) n ≥ 3 (37 n = 2, 38 single determination) (Table 3)) [nM] | KSol data [8] [µM] | SMILES | % multipolarity above baseline @ 15 μM (4NCA cells) ([1]; 15 μM, 4NCA DLD1 cells (Table 4)) [%] | % multipolarity above baseline @ 15 μM (4NCA cells) ([1]; 15 µM, 4NCA cells, supplementary CSV) [%] | increase in mitotic spindle multipolarity (4NCA) ([1]; 15 μM, centrosome-amplified (4NCA) DLD1 cell line) [%] | % Multipolarity above baseline @ 15 mM (4N cells) ([2]; 15 μM, 4N cells, supplementary CSV) [%] | effect on multipolar mitoses (4N), in words ([2]; 15 μM, non-centrosome amplified DLD1 (4N) cell line) | % multipolarity above baseline @ 15 μM (4N cells) ([2]; 4N DLD1 cells (Table 4)) [%] | fold increase in signal relative to tetrazine-Cy5 alone [7]
> 200000 | 0.34 | 5.4 | 0.34 | 5.4 | 27 | 27 | 86 | – | – | – | CCOC(=O)c1sc(NC(=O)CCNC(=O)c2cccc(-c3nnn(C)n3)c2)nc1C [Compound 18, Ethyl 4-Methyl-2-(3-(3-(2-methyl-2H-tetrazol-5-yl)benzamido)propanamido)thiazole-5-carboxylate] | 11 | 11 | ~10 | 0 | no increases in multipolar mitoses | 0 | –
– | – | – | – | – | – | – | – | 14–17 fold | 39 | 1.1 | CCCOC(=O)c1sc(NC(=O)C[C@H](CCCN(C)CC#CCNC(=O)O[C@@H]2CC/C=C/CCC2)NC(=O)c2cccc(-c3noc(C)n3)c2)nc1C [Compound 40, propyl 2-((S)-6-((4-(((((S,E)-Cyclooct-4-en-1-yl)oxy)carbonyl)amino)but-2-yn-1-yl)(methyl)amino)-3-(3-(5-methyl-1,2,4-oxadiazol-3-yl)benzamido)hexanamido)-4-methylthiazole-5-carboxylate] | – | – | – | – | – | – | 7–8 fold
